The test system of data set [1] is rat liver microsomes. In words: Stimulation of adrenochrome formation (superoxide) by rat hepatic microsomal incubations. The settings on record: for adrenochrome formation in presence of SOD: with SOD (superoxide dismutase) 5 ug/mL; for percentage stimulation of adrenochrome formation / adrenochrome formation: without SOD; for percentage stimulation of adrenochrome formation: (drug-stimulated rate - basal rate)/basal rate × 100; for adrenochrome formation: average ± standard error of triplicate. It is filed as biochemical. An excerpt:
It has been reported that the quinone imino chromophore of actinomycin can be subjected to enzyme-catalyzed single-electron reduction to give free-radical species that generate superoxides by reacting with molecular oxygen. The process needs a reductive cofactor NADPH, which is oxidized to NADP^+ during the process, giving a change in the absorbance at 340 nm that can be measured spectrophotometerically. Alternatively, the superoxides generated during the process may be allowed to react with epinephrine to produce adrenochrome, a chromophore with strong absorbance at 480 nm that can be measured spectrophotmetrically.
The superoxide formations were studied via NADPH oxidation catalyzed by AMD analogues in the presence of rat liver microsomes. […] The process of adrenochrome formation is inhibited by superoxide dismutase, confirming that superoxide is indeed generated in these systems.
^a The percentage stimulation = (drugstimulated rate basal rate)/basa
rate × 100 and is shown in parentheses. NADPH oxidation was measure
at 340 nm and adrenochrome formation was measured at 489 nm; the values
are average ± standard errors of triplicate analyses. ^b SOD,

Data set [2] deals with rat liver microsomes. The data set can be described thus: Metabolism in rat liver microsomes (M). It is filed as in vitro ADME. The following applies: 6 h, NADPH-generating system. As for the experimental part:
In this respect, actinomycin is only about 30% as efficient as its synthetic analogues, RAD III (3c) and SAD (2) (Table II). Metabolic Studies, Metabolism in the Presence of Tumor Cell Homogenates and Rat Liver Microsomes. The cell homogenates (P388 cells were sonicated and were incubated at 37° C. with analogues for 16 h. Rat microsomes were harvested from phenobarbital-induced rats by standard procedure. Incubations were carried out for 6 h in the presence of a NADPH-generating system, i.e., glucose-6-phosphate dehydrogenase and glucose 6-phosphate. The metabolites and their water-soluble conjugates were isolated and identified with the use of tritiated analogues.
It was observed that the RAD analogues are metabolized to SAD (2) with the loss of oxazole ring. […] In tumor cells, a larger fraction of SAD (2) (30-50%) remains unmetabolized. SAD is found to form glucuronide and sulfate conjugates only in tumor cells. […] Isolation of SAD from RAD analogues is a very important step, because SAD is found to be a potent and effective antitumor agent in several murine tumor systems (Tables V-XII).
For orientation: Liver microsomes are vesicles of endoplasmic reticulum, rich in cytochrome P450 enzymes.

The subject of the next data set is P388 cells. In words: Inhibition of nucleic acid synthesis in P388 cells in vitro. It is filed as cell-based, murine. From the text: (§1) In addition to the P388 cells, this inhibitory activity in human carcinoma HT-29 grown in tissue culture has been also examined. The values of the drug concentration producing 50% inhibition of the incorporation of [^3 H]-thymidine and [^14 C] uridine into nucleic acid macromolecules are presented in Table V. These values are taken as estimates of the inhibition of DNA and RNA synthesis. […] Furthermore, the inhibitory activities of these analogues are three-to fivefold higher than AMD; the order of potency of the analogues for their inhibition of DNA synthesis is:
(§2) DNA and RNA synthesis in P388 and HT-29 cells lines was monitored in the presence of drugs, and the rates of inhibition of their synthesis were estimated from the amounts of [2-^14 C]-uridine and [^3 H]-thymidine into RNA and DNA, respectively, according to the methods described previously.
(§3) ^a Human colon carcinoma in culture, IC50, drug concentration
(§4) producing a 50% inhibition of incorporation of precursor [^3 H]
(§5) thymidine into DNA and [^14 C] uridine into RNA in the cell lines,
(§6) isolated as acid preciptable materials. Data are average of replicate

Data set [3] relates to human colon carcinoma HT-29. In words: Inhibition of nucleic acid synthesis in HT-29 cells in vitro. It is filed as cell-based. The following applies: 2-h exposure.
Text: as §1, §2
In brief, for HT-29 colon carcinoma monolayer cells, 10^4 cells in each of five wells per concentration, were incubated with radiolabelec nucleosides ([…] each) for the last hour of a 2-h drug exposure, following which the cells were aspirated and washed with buffered medium. Cells were trypsinized and counted in the Coulter counter. The cell suspensions were then precipitated onto glass fiber filter discs (Whatman 934H), with 10% trichloracetic acid and twice with 95% ethanol and dried, and the incorporation of radionucleotides was estimated.
In addition, to investigate the cross contamination of radioactivity from [2^14 C] uridine, the cells were lysed with ice-cold 1% Triton X for 2.5 min. Macromolecules were precipitated with the addition of 10% perchloric acid (5% in the medium) and centrifuged; the pellet in 1% NaCl was treated with an equal volume of phenol reagent, the emulsion was centrifuged at 10000 g for 30 min at 4° C., and the separated layer was adjusted to 1% NaCl and treated with an equal volume of 2-ethoxyethanol to precipitate the nucleic acids. The precipitate was washed with 75% ethanol and dissolved in an aqueous solution containing 2% sodium acetate and 1.5% NaCl. An aliquot was used for estimation of the total radionucleotide incorporation. Ribonuclease, previously heated to 80° C. for 10 min to destroy deoxyribonuclease activity, was added, and the mixture was incubated at 37° C. for 30 min.
as §3, §4, §5, §6

The nature of data set [4]: Toxic deaths in nontumored mice treated in parallel (colon 38 experiment). It is filed as in vivo. An excerpt: × 100; in parenthesis, number of over 100 day survivors/number of
mice in a group of nontumored mice treated in parallel with the
tumorbearing mice and observed for 100 days.

The test system of a further data set is mammary MX-1. The data set can be described thus: Treatment of mammary MX-1 tumor. It is filed as in vivo. The settings on record: at the doses tested.
A further data set deals with lung LX-1. The data set can be described thus: Treatment of lung LX-1 tumor. The data set is classed as in vivo. The following applies: at the doses tested.
In the next data set the test system is P388 Leukemia. In words: Minimum effective dose in P388 tumor bearing mice. The following applies: for therapeutic index MTD/MED: MTD in normal BDF1 mice / MED in P388 tumor bearing mice; for MED (minimum effective dose), dose giving 45% increase in life span over control: ip once on days 1, 5, and 9, from plotted log-dose response data. It is filed as in vivo. From the text:
^a Drugs administered ip once on days 1, 5, and 9 starting 1 day afte
tumor implantation. Determinations were made from analysis of plotted
logdose response data. ^b MED (minimum effective dose) is the dose
(milligram/killogram) providing an increase in life span of 45% over

Data set [5] in a line: Maximum tolerated dose (LD10) in tumor-free male mice. The settings on record: ip days 1, 5, 9; deaths observed during 21 days; from plot of log dose vs percent mortality. On the procedure: The analogues were also tested in tumor-free male mice for their LD10 values (Table XIV). The animals were given a broad range of doses (ip) on days 1, 5, and 9. The maximum tolerated doses of AMD and the analogues that caused death in only 10% of the tested animals in 21 days (i.e., LD10) were recorded as MTD. […] On the basis of these values, the calculated therapeutic index values of SAD is 96, and those of RAD I, II, and III are 60, 67, and 70, respectively.
control in P388 tumor bearing mice. ^c MTD (maximum tolerated dose) i
the lethal dose (milligram/kilogram) for 10% normal BDF1 male mice
days). Values were calculated from a plot of log dose vs percent

Where [6] appears, read: [3H]thymidine incorporation, read-out: IC50, DNA synth.
Where [7] appears, read: [14C]uridine incorporation, read-out: IC50, RNA synth.
[8] abbreviates: dose 0.30 mg/kg iv days 1, 5, 9.
Setting [9] is: dose 0.60 mg/kg iv days 1, 5, 9.
The mark [10] stands for this setting: dose 1.20 mg/kg iv days 1, 5, 9.

As a reminder, the IC50 is the concentration that gives 50% inhibition.

Read-outs that look alike come from different tables or passages of the source.

In the case of `Cc1c2oc3c(C)c(O)c(N)c(C(=O)N[C@@H]4C(=O)N[C@H](C(C)C)C(=O)N5CCC[C@H]5C(=O)N(C)CC(=O)N(C)[C@@H](C(C)C)C(=O)O[C@@H]4C)c3nc-2c(C(=O)N[C@@H]2C(=O)N[C@H](C(C)C)C(=O)N3CCC[C@H]3C(=O)N(C)CC(=O)N(C)[C@@H](C(C)C)C(=O)O[C@@H]2C)c(N)c1=O` [SAD (2)], in the data set with rat liver microsomes [1], the “adrenochrome formation in presence of SOD” value is “inhibited”, the “percentage stimulation of adrenochrome formation” value is 815% and the adrenochrome formation was 19.3 ± 1.04 nmol/min per mg of protein. For the same compound, in the data set with rat liver microsomes [2], the “percent isolated: tissue bound” value turned out to be 15.0 ± 3.0%, the “percent isolated: unidentified metabolite” value is reported as 15.0 ± 4.0%, the “percent metabolite isolated: SAD-glucuronide and/or sulfate” value is listed as “nil” and the “percent metabolite isolated: protein conjugates” value was found to be 20.0 ± 5.0%. In the data set on rat liver microsomes [2], this compound had a percent unconverted drug of 50.0 ± 10.5%. Also, the IC50 with P388 cells (setting [6]) stood at 0.012 ± 0.004 µM. Further, the IC50 in the data set with P388 cells (setting [7]) is 0.015 µM. In addition, the IC50 in [3] (setting [6]) was 0.07 ± 0.011 µM. The half-maximal inhibitory concentration (IC50) in [3] (setting [7]) worked out at 0.055 ± 0.006 µM. Besides, the toxic deaths in [4] (setting [8]) is given as 0/9. In [4] (setting [9]), the toxic deaths was 0/9. In [4] (setting [10]), the toxic deaths is 4/9. For the same compound, the “response of mammary MX-1 to treatment” value with mammary MX-1 is recorded as “practically ineffective”. Besides, in the data set with lung LX-1, the “response of lung LX-1 to treatment” value was “practically ineffective”. In the data set on P388 Leukemia, the “therapeutic index MTD/MED” value was found to be 96 and the “MED (minimum effective dose), dose giving 45% increase in life span over control” value was found to be 0.025 milligram/killogram. Further, the “MTD (maximum tolerated dose), lethal dose for 10% of normal mice (LD10)” value in data set [5] is on record as 2.40 milligram/kilogram.
`Cc1c2oc3c(C)c4oc(-c5ccccc5)nc4c(C(=O)N[C@@H]4C(=O)N[C@H](C(C)C)C(=O)N5CCC[C@H]5C(=O)N(C)CC(=O)N(C)[C@@H](C(C)C)C(=O)O[C@@H]4C)c3nc-2c(C(=O)N[C@@H]2C(=O)N[C@H](C(C)C)C(=O)N3CCC[C@H]3C(=O)N(C)CC(=O)N(C)[C@@H](C(C)C)C(=O)O[C@@H]2C)c(N)c1=O` [RAD II (3b)]: in the data set with rat liver microsomes [1], the “adrenochrome formation in presence of SOD” value is listed as “inhibited”. In the data set on rat liver microsomes [1], the “percentage stimulation of adrenochrome formation” value came to 800%. Moreover, the adrenochrome formation in the data set with rat liver microsomes [1] is given as 18.8 ± 1.9 nmol/min per mg of protein. In addition, the half-inhibitory concentration (IC50) in the data set on P388 cells (setting [6]) amounted to 0.78 ± 0.066 µM; in the data set on P388 cells (setting [7]), 0.07 ± 0.005 µM; in data set [3] (setting [6]), 0.58 ± 0.055 µM; in data set [3] (setting [7]), 0.068 ± 0.01 µM. In addition, the toxic deaths was 1/9 in data set [4] (dose 0.15 mg/kg iv days 1, 5, 9); 0/9 in data set [4] (setting [8]); 0/9 in [4] (setting [9]); 4/9 in data set [4] (setting [10]). Also, in the data set on P388 Leukemia, the “therapeutic index MTD/MED” value turned out to be 67. For the same compound, the “MED (minimum effective dose), dose giving 45% increase in life span over control” value in the data set with P388 Leukemia is listed as 0.03 milligram/killogram. Further, in data set [5], the “MTD (maximum tolerated dose), lethal dose for 10% of normal mice (LD10)” value was 2.00 milligram/kilogram.

The values are drawn from patent publication US4966962A, “Reverse analogue of actinomycin D” (Trustees of Boston University, priority 1988, dated 1990).
